Results: paper PMC9569971, “New Oxazolo[5,4-d]pyrimidines as Potential Anticancer Agents: Their Design, Synthesis, and In Vitro Biological Activity Research” (International Journal of Molecular Sciences, 2022)

Key:
[1] = MTT viability assay, NHDF; assay type: cell-based, human; conditions: human, normal human dermal fibroblasts (NHDF), tested 1–500 µM
[2] = test system: breast adenocarcinoma (MCF7); assay: MTT viability assay, MCF7; assay type: cell-based, human; conditions: Homo sapiens; MCF7, MTT, tested 1–500 µM
[3] = test system: Caspase-3; assay: Human Caspase-3 (Active) ELISA Kit, HT29 lysate; assay type: cell-based; conditions: lysate of HT29 cells treated with 3g; SD ±3.03
Protocol: The test was performed on an HT29 colon adenocarcinoma cell line lysate treated with compound 3g. Cells from the HT29 line were harvested by centrifugation (non-adherent cells) and scraping from the culture flasks (adherent cells), and then the cells were washed twice with cold PBS. The supernatant was removed and discarded, and cell pellets were collected. The cell pellets were then lysed in a cell extraction container for 30 min on ice and […]. The lysate was transferred to microcentrifuge tubes and centrifuged at 13,000 rpm for 10 min at 4 °C. The supernatant was transferred to clean microcentrifuge tubes. Caspase-3 standard (active) was prepared from recombinant protein. The caspase-3 standard was reconstituted with the standard solvent solution at a concentration of 2.5 ng/mL. The contents were swirled and then left for 10 min to ensure complete dissolution. […]
In this method, a monoclonal capture antibody specific to caspase-3 (cleaved) was coated onto the wells of a 96-well plate. […] The absorbance at 450 nm was read for […] after the stop solution was added. […] Concentrations for unknown samples and controls were read from the standard curve. The intensity of the colored product was directly proportional to the concentration of the target protein present in the original specimen, and the optical density was read on a microplate reader. […]

Cc1noc(N)c1-c1nc2c(NCCCN(C)C)ncnc2o1 [Compound 3g, 2-(5-Amino-3-methylisoxazol-4-yl)-7-N-[3-(N,N-dimethylamino)propyl]aminooxazolo[5,4-d]pyrimidine]
CC50 [1]: 156 ± 15.5 µM | CC50 [2]: 209 ± 9.67 µM | Caspase-3 concentration [3]: 12.27 [ng/mL]
